Reference: the PolyMetriX glass transition set
± gives the standard deviation of the reports.

glass transition temperature	SMILES
276.00 °C	*C(=O)Nc1ccc(Oc2c(C)cc(C(C)(C)c3cc(C)c(Oc4ccc(NC(=O)c5ccc6c(c5)C(=O)N(c5ccc(Oc7ccc(C8(c9ccc(Oc%10ccc(N%11C(=O)c%12ccc(*)cc%12C%11=O)cc%10)cc9)CC9CC8C8CCCC98)cc7)cc5)C6=O)cc4)c(C)c3)cc2C)cc1 (repeat unit)
150.30 °C	*c1ccc2c(c1)C(=O)N(c1cc(N3C(=O)c4ccc(C(*)(C(F)(F)F)C(F)(F)F)cc4C3=O)ccc1OCCCCCCOc1ccc(-c3ccc(OCC)cc3)cc1)C2=O (repeat unit)
269.00 °C	*Oc1ccc(S(=O)(=O)c2ccc(-c3ccc(*)cc3)cc2)cc1 (repeat unit)
318.00 °C	*C(=O)Nc1ccc(C(c2ccc(NC(=O)c3ccc4c(c3)C(=O)N(c3c(C)cc(-c5cc(C)c(N6C(=O)c7ccc(*)cc7C6=O)c(C)c5)cc3C)C4=O)cc2)(C(F)(F)F)C(F)(F)F)cc1 (repeat unit)
130.00 °C	*c1ccc2c(c1)Sc1cc(-c3sc(/C=C/C4=CC(=C(C#N)C#N)C=C(/C=C/c5sc(*)c(CCCCCC)c5CCCCCC)O4)c(CCCCCC)c3CCCCCC)ccc1N2CCCCCC (repeat unit)
140.00 °C	*Oc1ccc(Cc2ccc(OC(=O)c3ccc(C(C)(C)c4ccc(C(*)=O)cc4)cc3)cc2)cc1 (repeat unit)
263.00 °C	*c1ccc(Oc2cc(C(C)(C)C)c(Oc3ccc(N4C(=O)c5ccc(S(=O)(=O)c6ccc7c(c6)C(=O)N(*)C7=O)cc5C4=O)cc3)cc2C(C)(C)C)cc1 (repeat unit)
267.00 °C	*C(=O)Nc1ccc(Oc2ccc(-c3ccc(Oc4ccc(NC(=O)c5ccc6c(c5)C(=O)N(c5ccc(Oc7ccc(S(=O)(=O)c8ccc(Oc9ccc(N%10C(=O)c%11ccc(*)cc%11C%10=O)cc9)cc8)cc7)cc5)C6=O)cc4)cc3)cc2)cc1 (repeat unit)
198.00 °C	*c1ccc2c(c1)C(=O)N(c1cc(N3C(=O)c4ccc(C(*)(C(F)(F)F)C(F)(F)F)cc4C3=O)ccc1OCCCCCCOc1ccc(/N=N/c3ccc(OCC)cc3)cc1)C2=O (repeat unit)
282.00 °C	*c1ccc(Oc2ccc(C(C)(C)c3ccc(Oc4ccc(-c5nnc(*)c6c(-c7ccc(F)cc7)c(-c7ccc(F)cc7)c(-c7ccc(F)cc7)c(-c7ccc(F)cc7)c56)cc4)cc3)cc2)cc1 (repeat unit)
264.00 °C	*Oc1ccc(NC(=O)c2ccc(C(=O)Nc3ccc(Oc4ccc(C5(c6ccc(*)cc6)C6CC7CC(C6)CC5C7)cc4)cc3)cc2)cc1 (repeat unit)
248.00 °C	*Cc1cc2cc(C(=O)Nc3ccc(-c4ccc(NC(=O)c5cc6cc(*)c(OC(=O)COc7ccc8ccc(=O)oc8c7)cc6oc5=O)cc4)cc3)c(=O)oc2cc1OC(=O)COc1ccc2ccc(=O)oc2c1 (repeat unit)
31.00 °C	*CC(*)(C)C(=O)OCC1COCCOCCOCCOCCOC1 (repeat unit)
166.00 °C	*CC(*)c1ccc(Cn2c3ccccc3c3ccccc32)cc1 (repeat unit)
210.00 °C	*CN1C(=O)c2ccc(C(c3ccc4c(c3)C(=O)N(Cc3nnc(-c5ccc(Oc6ccc(-c7nnc(*)o7)cc6)cc5)o3)C4=O)(C(F)(F)F)C(F)(F)F)cc2C1=O (repeat unit)
224.00 °C	*Oc1ccc(/C(=C/c2ccc(-c3ccc(/C=C(\c4ccccc4)c4ccc(OC(=O)c5cccc(C(*)=O)c5)cc4)cc3)cc2)c2ccccc2)cc1 (repeat unit)
260.00 °C	*c1ccc(OCCN(C)c2ccc(/C=C/C3=CC(=C4/C(=O)c5ccccc5C4=C(C#N)C#N)/C=C(/C=C/c4ccc(N(C)CCOc5ccc(-c6nc7ccc(Oc8ccc9nc(*)c(-c%10ccccc%10)nc9c8)cc7nc6-c6ccccc6)cc5)cc4)O3)cc2)cc1 (repeat unit)
117 ± 0.6 °C	*C(F)(F)C1(F)C(F)(F)C(*)(F)C(F)(F)C1(F)F (repeat unit) [Perfluoropolymer 3]
329.00 °C	*Cc1ccc2oc(=O)c(C(=O)Nc3ccc(C(c4ccc(NC(=O)c5cc6cc(*)ccc6oc5=O)cc4)(C(F)(F)F)C(F)(F)F)cc3)cc2c1 (repeat unit)
298.00 ± 3.2 °C	*c1ccc2c(c1)C(=O)N(c1cccc(N3C(=O)c4ccc(C(*)(C(F)(F)F)C(F)(F)F)cc4C3=O)c1)C2=O (repeat unit)
222.00 °C	*CC1CCCC(CN2C(=O)c3ccc(C(c4ccc5c(c4)C(=O)N(*)C5=O)(C(F)(F)F)C(F)(F)F)cc3C2=O)C1 (repeat unit)

glass transition temperature	SMILES
160.00 °C	*CC(O)CN(*)c1ccc(/N=N/c2ccc(Cl)cc2)cc1 (repeat unit)
93.00 °C	*CCCCCCCCc1nc2cc(NC(=O)CCCCCCCCC(=O)Nc3ccc4oc(*)nc4c3)ccc2o1 (repeat unit)
152.00 °C	*CC(O)CN(*)c1cc(C)c(/N=N/c2ccc([N+](=O)[O-])cc2)c(C)c1 (repeat unit)
196.00 °C	*Oc1cccc2ccc(Oc3ccc(NC(=O)c4ccc(Oc5cccc(Oc6ccc(C(=O)Nc7ccc(*)cc7)cc6)c5)cc4)cc3)cc12 (repeat unit)
68.00 °C	*CC(C)(C)COC(=O)c1ccc(C(=O)O*)cc1 (repeat unit)
130.00 °C	*CCN(CCOC(=O)c1cc(OCc2cc(OCc3ccccc3)cc(OCc3ccccc3)c2)cc(C(=O)O*)c1)c1ccc(/C=C/c2ccc(/C=C/C3=C(C#N)C(=C(C#N)C#N)OC3(c3ccccc3)C(F)(F)F)s2)cc1 (repeat unit)
205.00 °C	*Oc1ccc(C(C)(C)c2ccc(OC(=O)c3ccc(Cc4ccc(C(*)=O)cc4)cc3)cc2)cc1 (repeat unit)
-68.00 °C	*O[Si](C)(C)O[Si](C)(C)O[SiH](*)O[Si](C)(C)C=C (repeat unit)
247.00 °C	*c1cccc(N2C(=O)c3ccc(Oc4ccc(-c5ccc(Oc6ccc7c(c6)C(=O)N(*)C7=O)cc5)cc4)cc3C2=O)c1 (repeat unit)
-1.00 °C	*c1ccc(-c2cc(CCCCCCCC)c(-c3ccc(-c4ccc(-c5sc(-c6ccc([Si](*)(CCCC)CCCC)s6)cc5CCCCCCCC)s4)s3)s2)s1 (repeat unit)
83.50 °C	*c1cc(Br)c(-c2c(Br)cc(N3C(=O)c4ccc(-c5ccc6c(c5)C(=O)N(*)C6=O)cc4C3=O)cc2C(=O)OCCCCCCCCCCCCCCCCCC)c(C(=O)OCCCCCCCCCCCCCCCCCC)c1 (repeat unit)
227.00 °C	*c1cccc(N2C(=O)c3ccc(Oc4ccc(Oc5ccc(Oc6ccc7c(c6)C(=O)N(*)C7=O)cc5)cc4)cc3C2=O)c1 (repeat unit)
10.00 °C	*CC(*)C(=O)OC(F)(C(F)(F)F)C(F)(F)F (repeat unit)
202.00 °C	*Oc1ccc(Oc2ccc(C(=O)c3cccc4cccc(C(=O)c5ccc(*)cc5)c34)cc2)cc1 (repeat unit)
140.00 °C	*Oc1c(Cl)cc(C(C)(C)c2cc(Cl)c(OC(=O)c3ccc(OCCCCCCCCCCOc4ccc(C(*)=O)cc4)cc3)c(Cl)c2)cc1Cl (repeat unit)
242.00 °C	*C1CCC(CC2CCC(N3C(=O)c4ccc(-c5ccc6c(c5)C(=O)N(*)C6=O)cc4C3=O)CC2)CC1 (repeat unit)
329.00 °C	*c1ccc2c(c1)C(=O)N(c1ccc(Oc3ccc(N4C(=O)c5ccc(-c6c(-c7ccccc7)c(-c7ccccc7)c(-c7ccc(Oc8ccc(-c9c(-c%10ccccc%10)c(-c%10ccccc%10)c(*)c(-c%10ccccc%10)c9-c9ccccc9)cc8)cc7)c(-c7ccccc7)c6-c6ccccc6)cc5C4=O)cc3)cc1)C2=O (repeat unit)
190.00 °C	*Oc1ccc(C(C)(C)c2ccc(OC(=O)c3ccc(C(*)=O)cc3)c(Cl)c2)cc1Cl (repeat unit)
83.00 °C	*CC(*)(C)C(=O)OCCCCCCN1CCN(c2ccc(/N=N/c3ccc(C=C(C#N)C#N)cc3)cc2)CC1 (repeat unit)
255.00 °C	*c1ccc(CC(=O)Nc2cccc3c(NC(=O)Cc4ccc(-c5sc(*)c(-c6ccccc6)c5-c5ccccc5)cc4)cccc23)cc1 (repeat unit)
85.00 °C	*C(=O)OCC(C)(C)CS(=O)(=O)CC(C)(C)COC(=O)N1CC(C)N(*)CC1C (repeat unit)

SMILES	glass transition temperature
*CC(*)(C)C(=O)OCCc1ccccc1 (repeat unit) [Poly(2-phenylethyl methacrylate)]	37.42 ± 16 °C
*CC(*)C(=O)OCCCSCC (repeat unit)	-76.00 °C
*C(F)(F)C(*)(F)OC(F)(F)C(F)(F)F (repeat unit)	29.00 °C
*CC/C=C(/*)C(C)C (repeat unit)	-47.00 °C
*CC(*)C(=O)OCc1ccccc1 (repeat unit)	9.2 °C
*CC(F)(F)/C(F)=C(/*)Cl (repeat unit)	-17.00 °C
*O[Si](*)(C)CCCC(=O)OCC (repeat unit)	-82.00 °C
*CCCCOC(=O)CCCCC(=O)O* (repeat unit) [Poly(tetramethylene adipate) ]	-68 ± 2.1 °C
*C(C)C(*)C(=O)OCCCC (repeat unit)	90.00 °C
*CCCCCCCCCCOc1ccc(/C=C2\CC/C(=C\c3ccc(OCCCCCCCCCCOP(=O)(O*)OCC)c(OC)c3)C2=O)cc1OC (repeat unit)	47.00 °C
*OP(=O)(Oc1ccccc1)Oc1ccc(*)cc1 (repeat unit)	97.00 °C
*CC(CO*)(CSC)CSC (repeat unit)	-6.00 °C
*CC(*)C(=O)Nc1cccc(Cl)c1 (repeat unit)	70.00 °C
*CC(*)C(=O)OCCSCCCC#N (repeat unit)	-58.00 °C
*CC(*)OC(=O)c1ccncc1 (repeat unit)	98.50 °C
*OP(=O)(Oc1ccc(NC(=O)Oc2ccc(-c3ccc(OC(=O)Nc4ccc(*)cc4)cc3)cc2)cc1)c1ccccc1 (repeat unit)	34.00 °C
*CC(*)(F)C(=O)OCCC (repeat unit)	62.00 °C
*CC(*)c1c([2H])c([2H])c([2H])c([2H])c1[2H] (repeat unit)	100.00 °C
